Target: T1, Human α-thrombin (Homo sapiens, UniProt P00734)
T1 construct: Human α-thrombin; purchased Sigma Chemical Co. or Hematologic Technologies
Assay: Test A: Determination of Thrombin Inhibition with a Chromogenic, Robotic Assay
Type: biochemical
Conditions: chromogenic substrate S-2366 0.30 mmol/L, α-thrombin 0.020 NIHU/mL, 40 minutes incubation at 37° C.
Procedure: Determination of Thrombin Inhibition with a Chromogenic, Robotic Assay
The thrombin inhibitor potency is measured with a chromogenic substrate method, in a Plato 3300 robotic microplate processor (Rosys AG, CH-8634 Hombrechtikon, Switzerland), using 96-well, half volume microtitre plates (Costar, Cambridge, Mass., USA; Cat No 3690). Stock solutions of test substance in DMSO (72 μL), 0.1-1 mmol/L, are diluted serially 1:3 (24+48 μL) with DMSO to obtain ten different concentrations, which are analyzed as samples in the assay. 2 μL of test sample is diluted with 124 μL assay buffer, 12 μL of chromogenic substrate solution (S-2366, Chromogenix, Mölndal, Sweden) in assay buffer and finally 12 μL of α-thrombin solution (Human α-thrombin, Sigma Chemical Co. or Hematologic Technologies) in assay buffer, are added, and the samples mixed. The final assay concentrations are: test substance […], S-2366 0.30 mmol/L, α-thrombin 0.020 NIHU/mL The linear absorbance increment during 40 minutes incubation at 37° C. is used for calculation of percentage inhibition for the test samples, as compared to blanks without inhibitor. The IC50 value, corresponding to the inhibitor concentration which causes 50% inhibition of the thrombin activity, is calculated from a log concentration vs. % inhibition curve.

Structure (SMILES) | IC50 [nM]
O=C(NCc1cc(Cl)ccc1-n1cnnn1)[C@@H]1CCNN1C(=O)C1(O)CCOc2ccccc21 (stereo partly drawn) [Example 53, (3S)—N-[5-Chloro-2-(1H-tetrazol-1-yl)benzyl]-2-[(4-hydroxy-3,4-dihydro-2H-chromen-4-yl)carbonyl]pyrazolidine-3-carboxamide] | 240
CC(C)C(=O)O[C@@H](C(=O)N1N=CC[C@H]1C(=O)NCc1cc(Cl)ccc1-n1cnnn1)c1ccc(F)cc1 [Example 26, (1R)-2-[(5S)-5-{[5-Chloro-2-(1H-tetrazol-1-yl)benzyl]carbamoyl}-4,5-dihydro-1H-pyrazol-1-yl]-1-(4-fluorophenyl)-2-oxoethyl 2-methylpropanoate] | 150
CC(C)(C)OC[C@@H](N)C(=O)N1OCC[C@H]1C(=O)NCc1cc(Cl)ccc1-n1cnnn1 [Example 32, (3S)-2-(O-tert-Butyl-D-seryl)-N-[5-chloro-2-(1H-tetrazol-1-yl)benzyl]isoxazolidine-3-carboxamide] | 170
CCC(=O)Oc1cc(C)cc(C)c1C(C)(C)CC(=O)O[C@@H](C(=O)N1N=CC[C@H]1C(=O)NCc1cc(Cl)ccc1-n1cnnn1)c1ccc(F)cc1 [Example 30, (R)-2-((S)-5-(5-Chloro-2-(1H-tetrazol-1-yl)benzylcarbamoyl)-4,5-dihydro-1H-pyrazol-1-yl)-1-(4-fluorophenyl)-2-oxoethyl 3-(2,4-dimethyl-6-(propionyloxy)phenyl)-3-methylbutanoate] | 660
CCCCC(=O)O[C@@H](C(=O)N1N=CC[C@H]1C(=O)NCc1cc(Cl)ccc1-n1cnnn1)c1ccc(F)cc1 [Example 27, (1R)-2-[(5S)-5-{[5-Chloro-2-(1H-tetrazol-1-yl)benzyl]carbamoyl}-4,5-dihydro-1H-pyrazol-1-yl]-1-(4-fluorophenyl)-2-oxoethyl pentanoate] | 140
O=C(NCc1cc(Cl)ccc1-n1cnnn1)[C@@H]1CCON1C(=O)C(O)c1cccc(F)c1F (stereo partly drawn) [Example 34, (3S)—N-[5-Chloro-2-(1H-tetrazol-1-yl)benzyl]-2-[(2,3-difluorophenyl)(hydroxy)acetyl]isoxazolidine-3-carboxamide] | 160
CC(C)(C)OC[C@@H](O)C(=O)N1OCC[C@H]1C(=O)NCc1cc(Cl)ccc1-n1cnnn1 [Example 40, (3S)-2-[(2R)-3-tert-Butoxy-2-hydroxypropanoyl]-N-[5-chloro-2-(1H-tetrazol-1-yl)benzyl]isoxazolidine-3-carboxamide] | 44
N#Cc1cccc(C(O)C(=O)N2OCC[C@H]2C(=O)NCc2cc(Cl)ccc2-n2cnnn2)c1 (stereo partly drawn) [Example 48, (3S)—N-[5-Chloro-2-(1H-tetrazol-1-yl)benzyl]-2-[(3-cyanophenyl)(hydroxy)acetyl]isoxazolidine-3-carboxamide] | 92
CC(=O)O[C@@H](C(=O)N1N=CC[C@H]1C(=O)NCc1cc(Cl)ccc1-n1cnnn1)c1ccc(F)cc1 [Example 23, [(1R)-2-[(5S)-5-[[5-Chloro-2-(tetrazol-1-yl)phenyl]methylcarbamoyl]-4,5-dihydropyrazol-1-yl]-1-(4-fluorophenyl)-2-oxo-ethyl]acetate] | 193
O=C(NCc1cc(Cl)ccc1-n1cnnn1)[C@@H]1CCON1C(=O)C(O)c1ccc(F)cc1F (stereo partly drawn) [Example 33, (3S)—N-[5-Chloro-2-(1H-tetrazol-1-yl)benzyl]-2-[(2,4-difluorophenyl)(hydroxy)acetyl]isoxazolidine-3-carboxamide] | 100
CC(C)CC(=O)O[C@@H](C(=O)N1N=CC[C@H]1C(=O)NCc1cc(Cl)ccc1-n1cnnn1)c1ccc(F)cc1 [Example 24, (1R)-2-[(5S)-5-{[5-Chloro-2-(1H-tetrazol-1-yl)benzyl]carbamoyl}-4,5-dihydro-1H-pyrazol-1-yl]-1-(4-fluorophenyl)-2-oxoethyl 3-methylbutanoate] | 140
O=C(NCc1cc(Cl)ccc1-n1cnnn1)[C@@H]1CC=NN1C(=O)C1(O)CCOc2ccccc21 (some centres unmarked) [Example 12] | 130

Further molecules by falling IC50, results first:

IC50 [nM] | Structure (SMILES)
80 | O=C(NCc1cc(Cl)ccc1-n1cnnn1)[C@@H]1CCON1C(=O)[C@H](O)Cc1ccccc1 [Example 47, (3S)—N-[5-Chloro-2-(1H-tetrazol-1-yl)benzyl]-2-[(2R)-2-hydroxy-3-phenylpropanoyl]isoxazolidine-3-carboxamide]
79 | O=C(NCc1cc(Cl)ccc1-n1cnnn1)[C@@H]1CCNN1C(=O)[C@H](O)Cc1ccccc1 [Example 56, (3S)—N-[5-Chloro-2-(1H-tetrazol-1-yl)benzyl]-2-[(2R)-2-hydroxy-3-phenylpropanoyl]pyrazolidine-3-carboxamide]
70 | O=C(NCc1cc(Cl)ccc1-n1cnnn1)[C@@H]1CCON1C(=O)C(O)c1cc(F)cc(F)c1 (stereo partly drawn) [Example 35, (3S)—N-[5-Chloro-2-(1H-tetrazol-1-yl)benzyl]-2-[(3,5-difluorophenyl)(hydroxy)acetyl]isoxazolidine-3-carboxamide]
68 | CC1(C[C@@H](O)C(=O)N2OCC[C@H]2C(=O)NCc2cc(Cl)ccc2-n2cnnn2)CC1 [Example 43, (3S)—N-[5-Chloro-2-(1H-tetrazol-1-yl)benzyl]-2-[(2R)-2-hydroxy-3-(1-methylcyclopropyl)propanoyl]isoxazolidine-3-carboxamide]
63 | O=C(NCc1cc(Cl)ccc1-n1cnnn1)[C@@H]1CCNN1C(=O)C(O)c1ccc(F)cc1F (stereo partly drawn) [Example 51, (3S)—N-[5-Chloro-2-(1H-tetrazol-1-yl)benzyl]-2-[(2,4-difluorophenyl)(hydroxy)acetyl]pyrazolidine-3-carboxamide]
43 | CCCC[C@@H](O)C(=O)N1OCC[C@H]1C(=O)NCc1cc(Cl)ccc1-n1cnnn1 [Example 38, (3S)—N-[5-Chloro-2-(1H-tetrazol-1-yl)benzyl]-2-[(2R)-2-hydroxyhexanoyl]isoxazolidine-3-carboxamide]
41 | O=C(NCc1cc(Cl)ccc1-n1cnnn1)[C@@H]1CCON1C(=O)[C@H](O)C1CCCC1 [Example 41, (3S)—N-[5-Chloro-2-(1H-tetrazol-1-yl)benzyl]-2-[(2R)-2-cyclopentyl-2-hydroxyacetyl]isoxazolidine-3-carboxamide]
35 | O=C(NCc1cc(Cl)ccc1-n1cnnn1)[C@@H]1CC=NN1C(=O)C(O)c1ccc(F)cc1F (stereo partly drawn) [Example 6, (5S)—N-[5-Chloro-2-(1H-tetrazol-1-yl)benzyl]-1-[(2,4-difluorophenyl)(hydroxy)acetyl]-4,5-dihydro-1H-pyrazole-5-carboxamide]
31 | O=C(NCc1cc(Cl)ccc1-n1cnnn1)[C@@H]1CC=NN1C(=O)[C@H](O)CC1CC1 [Example 19, (5S)—N-[5-Chloro-2-(1H-tetrazol-1-yl)benzyl]-1-[(2R)-3-cyclopropyl-2-hydroxypropanoyl]-4,5-dihydro-1H-pyrazole-5-carboxamide]
18 | O=C(NCc1cc(Cl)ccc1-n1cnnn1)[C@@H]1CC=NN1C(=O)C(O)c1cc(F)cc(F)c1 (stereo partly drawn) [Example 4, (5S)—N-[5-Chloro-2-(1H-tetrazol-1-yl)benzyl]-1-[(3,5-difluorophenyl)(hydroxy)acetyl]-4,5-dihydro-1H-pyrazole-5-carboxamide]
16 | Cc1cccc(C(O)C(=O)N2OCC[C@H]2C(=O)NCc2cc(Cl)ccc2-n2cnnn2)c1 (stereo partly drawn) [Example 37, (3S)—N-[5-Chloro-2-(1H-tetrazol-1-yl)benzyl]-2-[hydroxy(3-methylphenyl)acetyl]isoxazolidine-3-carboxamide]
13 | CC(C)CC[C@@H](O)C(=O)N1OCC[C@H]1C(=O)NCc1cc(Cl)ccc1-n1cnnn1 [Example 39, (3S)—N-[5-Chloro-2-(1H-tetrazol-1-yl)benzyl]-2-[(2R)-2-hydroxy-5-methylhexanoyl]isoxazolidine-3-carboxamide]
13 | O=C(O[C@@H](C(=O)N1N=CC[C@H]1C(=O)NCc1cc(Cl)ccc1-n1cnnn1)c1ccc(F)cc1)c1ccccc1 [Example 29, (1R)-2-[(5S)-5-{[5-Chloro-2-(1H-tetrazol-1-yl)benzyl]carbamoyl}-4,5-dihydro-1H-pyrazol-1-yl]-1-(4-fluorophenyl)-2-oxoethyl benzoate]
9.7 | O=C(NCc1cc(Cl)ccc1-n1cnnn1)[C@@H]1CCON1C(=O)[C@H](O)c1ccc(F)cc1 [Example 31, (3S)—N-[5-Chloro-2-(1H-tetrazol-1-yl)benzyl]-2-[(2R)-2-(4-fluorophenyl)-2-hydroxyacetyl]isoxazolidine-3-carboxamide]
8.4 | O=C(NCc1cc(Cl)ccc1-n1cnnn1)[C@@H]1CCNN1C(=O)[C@H](O)C1CCCCC1 [Example 55, (3S)—N-[5-Chloro-2-(1H-tetrazol-1-yl)benzyl]-2-[(2R)-2-cyclohexyl-2-hydroxyacetyl]pyrazolidine-3-carboxamide]
8.4 | O=C(NCc1cc(Cl)ccc1-n1cnnn1)[C@@H]1CCNN1C(=O)[C@H](O)c1ccc(F)cc1 [Example 52, (3S)—N-[5-Chloro-2-(1H-tetrazol-1-yl)benzyl]-2-[(2R)-2-(4-fluorophenyl)-2-hydroxyacetyl]pyrazolidine-3-carboxamide]
3.5 | CC(C)(C)C[C@@H](N)C(=O)N1N=CC[C@H]1C(=O)NCc1cc(Cl)ccc1-n1cnnn1 [Example 18, (5S)—N-[5-Chloro-2-(1H-tetrazol-1-yl)benzyl]-1-(4-methyl-D-leucyl)-4,5-dihydro-1H-pyrazole-5-carboxamide]
